Series [1] can be described thus: Serum total bile acids in carbon tetrachloride-induced liver injury model. The format is in vivo, mouse. As to conditions: L-TBA mice, CCl4 i.p. three times a week for 2 weeks vs vehicle control. As to the method:
(§1) C57BL/6J wild-type (WT) mice (Stock #000664) were procured from Jackson Laboratory and bred in-house in specific pathogen-free condition at the University of Toledo College of Medicine and Life Sciences. Mice were housed in cages (n=5 mice/cage) containing corn cob bedding (Bed-O-Cob; The Andersons Co.) and nestlets (Cat #CABFM00088; Ancare). The cages were housed at 23° C. under a 12/12-h light/dark phase cycle and fed a grain-based laboratory chow diet (LabDiet 5001) ad libitum. Mice were screened for serum total bile acids (TBA) prior to weaning. On day 22 for weaning, mice with low bile acids (L-TBA<40 µM) or high bile acids (H-TBA≥40 µM) were segregated into separate cages. To induce liver fibrosis in mice, carbon tetrachloride (Sigma-Aldrich, St. Louis, MO) ([…]) was administered intraperitoncally three times a week for 2 weeks with corn oil (Sigma-Aldrich) (50 μL) serving as vehicle control.
Total bile acids (TBA) in hemolysis-free sera were measured using a TBA assay kit (Enzyme Cycling Method; Diazyme Laboratories) according to the manufacturer's protocol.

Series [2] concerns RBCs. Kind of series: Osmotic fragility test of RBCs from CCl4-treated mice. The format is in vivo, mouse. As to conditions: RBCs of L-TBA mice treated with CCl4 for 2 weeks vs vehicle; NaCl osmotic fragility. The procedure: as §1
Blood was collected in EDTA-containing tubes and then 10 μl aliquots were placed into a round bottom 96-well plate. […] The degree of red blood cell (RBC) hemolysis was evaluated spectrophotometrically at 540 nm on a Biotek Eon microplate spectrophotometer and normalized to the optical density value of 0.0% buffered salt solution. […] All groups were incubated at 37° C. for 1 hr prior and measured for osmotic fragility.

Series [3] relates to RBCs from L-TBA mice. Kind of series: Osmotic fragility test after ex-vivo bile acid supplementation of RBCs. The format is cell-based, mouse. As to conditions: 100 μM bile acid in PBS, 1 hr at 37° C. before NaCl osmotic fragility test; vs PBS alone.

Molecules are shown by their SMILES.

Consider `ClC(Cl)(Cl)Cl` [CCl4, carbon tetrachloride], for which the “increase in serum TBA levels” value in series [1] came to 16 fold. In addition, in series [2], the “resistance of RBCs to osmotic lysis” value is on record as “highly resistant to osmotic lysis”.

On to `C[C@H](CCC(=O)O)[C@H]1CC[C@H]2[C@@H]3[C@H](O)C[C@@H]4C[C@H](O)CC[C@]4(C)[C@H]3C[C@H](O)[C@]12C` [cholic acid], for which the “resistance to osmotic lysis (hemolysis) of L-TBA RBCs” value in series [3] was “confer resistance”.

Regarding `C[C@H](CCC(=O)NCCS(=O)(=O)O)[C@H]1CC[C@H]2[C@@H]3[C@H](O)C[C@@H]4C[C@H](O)CC[C@]4(C)[C@H]3C[C@H](O)[C@]12C` [taurocholate, taurocholic acid], the “resistance to osmotic lysis (hemolysis) of L-TBA RBCs” value in series [3] is reported as “failed to induce any resistance”.

The values are drawn from patent US20250076280A1, “RAPID SCREENING FOR ELEVATED BILE ACIDS USING WHOLE BLOOD” (The University of Toledo, priority 2022, published 2025).
